The source of these data is publication PMC6250127 (Journal of medicinal chemistry, 2015).

Each structure is given as a SMILES string. “Also recorded” adds a separate entry of the source. Like-named read-outs stand apart in the source and are kept apart here. A value given as a limit tells only on which side of the number the result lay.

Data set [1] is described as follows: PC12 cell viability, direct effect of compound. The settings on record: rat.
Data set [2] concerns the target human D2 receptor (Homo sapiens, UniProt P14416). Description: Stimulation of [35S]GTPγS binding, human D2 receptor in CHO cells. The settings on record: for Emax: read-out: hCHO−D2 Emax, percent of Emax observed with 1 mM DA; for hCHO−D2 Emax: percent of Emax observed with 1 mM DA. Format: biochemical.
For data set [3], the system named is PC12 cells. Kind of data set: PC12 cell viability, direct effect of compound. The settings on record: PC12 cells, 0.01− 30 μM.
Data set [4] concerns the target human D3 receptor (Homo sapiens, UniProt P35462). Description: Stimulation of [35S]GTPγS binding, human D3 receptor in CHO cells. The settings on record: for Emax: read-out: hCHO−D3 Emax, percent of Emax observed with 100 μM DA; for D2/D3: ratio of GTPγS EC50 values. Type of data set: biochemical.
Data set [5] has as its system reserpinized rats. Kind of data set: Reversal of reserpine-induced hypolocomotion in rats. Type of data set: in vivo, rat. The conditions noted are these: for reversal of reserpine-induced hypolocomotion (locomotor activity): 10 μMol/kg ip, reserpine 5 mg/kg sc, 18 h pretreatment, rats; for duration of locomotor activation: 10 μMol/kg, reserpinized rats, locomotion monitored for 6 h.

The test system of data set [6] is PC12 cells. Kind of data set: Neuroprotection against 6-OHDA-induced toxicity in PC12 cells. The settings on record: 24 h pretreatment, then 75 μM 6-OHDA for 24 h.
For data set [7], the target named is T1, rat D3 receptor (Rattus norvegicus, UniProt P19020). Kind of data set: [3H]spiroperidol competition binding, rat D3 receptor in HEK-293 cells. The conditions noted are these: for D2L/D3: ratio of Ki values, selectivity for D3.
In data set [8] the target is rat D2L receptor (Rattus norvegicus, UniProt P61169). Description: [3H]spiroperidol competition binding, rat D2L receptor in HEK-293 cells.
Data set [9] deals with T1, rat D3 receptor. The conditions noted are these: ratio of Ki values; cited from earlier work.

T1 sequence (P19020 whole entry): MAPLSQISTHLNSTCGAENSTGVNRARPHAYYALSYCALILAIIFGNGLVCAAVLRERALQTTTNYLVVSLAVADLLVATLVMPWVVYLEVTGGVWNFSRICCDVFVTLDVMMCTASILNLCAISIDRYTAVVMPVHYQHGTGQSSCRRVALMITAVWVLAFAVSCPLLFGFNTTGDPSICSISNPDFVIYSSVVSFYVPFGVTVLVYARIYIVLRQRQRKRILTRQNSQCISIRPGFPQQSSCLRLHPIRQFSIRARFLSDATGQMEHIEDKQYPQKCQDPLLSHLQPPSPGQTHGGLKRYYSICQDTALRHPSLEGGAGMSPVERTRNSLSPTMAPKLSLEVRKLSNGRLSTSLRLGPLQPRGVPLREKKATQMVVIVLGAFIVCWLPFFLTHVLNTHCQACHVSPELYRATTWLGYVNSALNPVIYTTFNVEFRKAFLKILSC
Chain of human D3 receptor (P35462 whole entry): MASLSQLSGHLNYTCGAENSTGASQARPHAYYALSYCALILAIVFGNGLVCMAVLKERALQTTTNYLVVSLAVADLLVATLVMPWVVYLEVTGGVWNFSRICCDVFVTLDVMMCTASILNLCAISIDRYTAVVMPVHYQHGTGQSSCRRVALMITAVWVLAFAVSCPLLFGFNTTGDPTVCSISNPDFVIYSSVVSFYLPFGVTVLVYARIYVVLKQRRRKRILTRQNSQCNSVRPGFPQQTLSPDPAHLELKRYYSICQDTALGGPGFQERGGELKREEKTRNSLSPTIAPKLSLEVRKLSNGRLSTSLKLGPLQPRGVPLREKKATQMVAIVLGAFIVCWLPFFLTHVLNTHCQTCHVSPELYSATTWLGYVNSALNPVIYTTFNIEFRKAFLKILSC
Chain of human D2 receptor (P14416 whole entry): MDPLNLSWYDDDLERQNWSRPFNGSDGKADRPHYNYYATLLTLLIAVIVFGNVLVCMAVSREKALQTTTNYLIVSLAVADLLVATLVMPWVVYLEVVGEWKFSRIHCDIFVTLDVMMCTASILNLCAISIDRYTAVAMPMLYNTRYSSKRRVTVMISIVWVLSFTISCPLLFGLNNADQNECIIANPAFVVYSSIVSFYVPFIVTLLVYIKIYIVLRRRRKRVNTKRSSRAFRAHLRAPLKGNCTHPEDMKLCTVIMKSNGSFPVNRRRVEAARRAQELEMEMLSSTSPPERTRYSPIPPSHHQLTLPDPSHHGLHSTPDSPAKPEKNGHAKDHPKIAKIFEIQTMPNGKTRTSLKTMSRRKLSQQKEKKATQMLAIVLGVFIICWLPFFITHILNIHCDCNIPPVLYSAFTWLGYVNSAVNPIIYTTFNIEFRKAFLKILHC
Chain of rat D2L receptor (P61169 whole entry): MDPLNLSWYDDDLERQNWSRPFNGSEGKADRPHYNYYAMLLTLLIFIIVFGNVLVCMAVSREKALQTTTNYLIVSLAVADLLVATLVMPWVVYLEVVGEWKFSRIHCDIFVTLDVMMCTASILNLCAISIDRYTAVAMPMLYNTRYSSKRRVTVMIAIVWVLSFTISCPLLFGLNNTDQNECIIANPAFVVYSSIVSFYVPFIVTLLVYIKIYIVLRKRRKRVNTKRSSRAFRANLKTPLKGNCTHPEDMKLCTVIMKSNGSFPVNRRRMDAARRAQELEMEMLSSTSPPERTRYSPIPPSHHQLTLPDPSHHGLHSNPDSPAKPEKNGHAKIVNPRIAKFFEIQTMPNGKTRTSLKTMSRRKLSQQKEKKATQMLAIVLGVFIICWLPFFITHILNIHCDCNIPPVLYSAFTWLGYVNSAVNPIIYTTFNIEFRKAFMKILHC

In turn, `NCCc1cc(O)c(O)cc1O` [6-OHDA, 6-hydroxydopamine, reference compound] returned a viability at 24 h, 75 μM in data set [1] of approximately 50%.

With `CCCN(CCN1CCN(c2ccc3cc[nH]c3c2Cl)CC1)[C@H]1CCc2nc(N)sc2C1.O=C(O)C(F)(F)F` [(−)-21a, (S)-N^6-(2-(4-(7-Chloro-1H-indol-6-yl)piperazin-1-yl)ethyl)-N^6-propyl-4,5,6,7-tetrahydrobenzo[d]thiazole-2,6-diamine], the maximal response (Emax) in [2] is more than 100%. Further, the “effect of compound alone on cell viability” value in [3] is on record as “no cell loss at all”. Further, the maximal response (Emax) in data set [4] is more than 100%. In data set [5], the “reversal of reserpine-induced hypolocomotion (locomotor activity)” value (from here on “reversal”) is “highly effcacious in reversing hypolocomotion; also recorded: highly efficacious in reversing akinesia in rats” and the “duration of locomotor activation” value is on record as “long duration of action; also recorded: significant enhancement of locomotion for the entire duration of the study of 6 h”. Further, the “neuroprotective effect against 6-OHDA-induced toxicity” value in data set [6] is listed as “neuroprotective; also recorded: dose-dependently protected the cells from the neurotoxic insult”.

With `C#CCN(CCN1CCN(c2ccc3[nH]ccc3c2Cl)CC1)[C@H]1CCc2nc(N)sc2C1` [(−)-34, (S)-N^6-(2-(4-(4-Chloro-1H-indol-5-yl)piperazin-1-yl)ethyl)-N^6-(prop-2-yn-1-yl)-4,5,6,7-tetrahydrobenzo[d]thiazole-2,6-diamine], in [2], the concentration for a half-maximal effect (EC50) came out at 21.6 ± 9.6 nM and the “hCHO−D2 Emax” value stood at 26.7 ± 6.4%. Also, in data set [7], the Ki was 14.4 ± 1 nM and the D2L/D3 amounted to 5.99. This compound also yielded a Ki in data set [8] of 86.5 ± 15 nM. In addition, in data set [4], a half-maximal response (EC50) required 10.9 ± 2.4 nM, the D2/D3 is listed as 1.98 and the Emax was 94 ± 3.5%. Further, the “reversal” value in [5] is recorded as “able to elevate locomotor activity in the above PD animal model significantly; also recorded: locomotor activity was enhanced compared to control but was less than that observed with (−)-21a”.

On to `C#CCN(CCN1CCN(c2ccc3cc[nH]c3c2Cl)CC1)[C@H]1CCc2nc(N)sc2C1` [(−)-36, (S)-N^6-(2-(4-(7-Chloro-1H-indol-6-yl)piperazin-1-yl)ethyl)-N^6-(prop-2-yn-1-yl)-4,5,6,7-tetrahydrobenzo[d]thiazole-2,6-diamine], for which, in data set [2], a half-maximal response (EC50) required 39.4 ± 6.3 nM, the “hCHO−D2 Emax” value is on record as 86.8 ± 3.8% and the maximal effect (Emax) was approximately 100%. In data set [7], the Ki stood at 0.145 ± 0.035 nM and the D2L/D3 came to 1186. Besides, the inhibition constant Ki in [8] is 172 ± 16 nM. In data set [4], the EC50 is 0.84 ± 0.05 nM, the D2/D3 is given as 46.9 and the Emax is approximately 100%. Moreover, the “hCHO−D3 Emax” value in [4] (percent of Emax observed with 100 μM DA) came out at 93.4 ± 3.6%.

Turning to `CCCN(CCN1CCN(C(=O)c2c[nH]c3ccccc23)CC1)C1CCc2nc(N)sc2C1` [D-443, (4-(2-((2-amino-4,5,6,7-tetrahydrobenzo[d]-thiazol-6-yl)(propyl)amino)ethyl)-piperazin-1-yl)(1H-indol-3-yl)methanone], the D2L/D3 in data set [9] was 360.

In the case of `CCCN(CCC)CCc1cccc2c1CC(=O)N2` [ropinirole, reference compound], in data set [5], the “reversal” value was “quick onset of locomotor activation compared to control” and the “duration of locomotor activation” value is “much shorter duration of action compared with (−)-21a”.
